Assay results reported in US8440708B2, “Triazole-substituted arylamides as P2X3 and P2X2/3 antagonists” (Roche Palo Alto LLC, priority 2007, dated 2013).

Assays:
[1] = molecular target: T1, rat P2X3 receptor (Rattus norvegicus, UniProt P49654); experiment: P2X3/P2X2/3 FLIPR (Fluorometric Imaging Plate Reader) Assay, P2X3; assay type: cell-based; conditions: CHO-K1 cells transfected with rat P2X3; agonist α,β-meATP 1 μM; Table 1; read-out: P2X3 pKi (converted)
T1 construct: expressed in transfected cells; host or cells: CHO-K1
T1 sequence (P49654 1-397): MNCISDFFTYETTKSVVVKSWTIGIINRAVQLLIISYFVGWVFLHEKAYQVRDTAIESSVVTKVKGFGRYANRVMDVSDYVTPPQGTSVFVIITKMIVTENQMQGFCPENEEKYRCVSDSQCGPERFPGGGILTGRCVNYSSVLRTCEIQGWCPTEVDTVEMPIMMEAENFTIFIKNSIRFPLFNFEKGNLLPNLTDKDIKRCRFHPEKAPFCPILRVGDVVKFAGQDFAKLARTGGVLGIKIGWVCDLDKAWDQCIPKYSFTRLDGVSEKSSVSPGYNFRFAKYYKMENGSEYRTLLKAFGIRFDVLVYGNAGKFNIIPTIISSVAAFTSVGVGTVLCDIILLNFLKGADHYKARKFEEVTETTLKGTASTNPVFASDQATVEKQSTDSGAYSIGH
How it was run: (§1)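 Compounds were tested as antagonists of agonist-evoked calcium entry in CHO-K1 cells transfected with rat P2X3 or human P2X2/3. After 20 min with compound at room temperature, cells received α,β-meATP at 1 μM (P2X3) or 5 μM (P2X2/3), and peak fluorescence was recorded over 2 min.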

[2] = molecular target: T2, human P2X2/3 receptor (Homo sapiens, UniProt P56373+Q9UBL9); experiment: P2X3/P2X2/3 FLIPR (Fluorometric Imaging Plate Reader) Assay, P2X2/3; assay type: cell-based; conditions: CHO-K1 cells transfected with human P2X2/3; agonist α,β-meATP 5 μM; Table 1; read-out: P2X2/3 pKi (converted)
T2 construct: expressed in transfected cells; host or cells: CHO-K1
T2 sequence (Q9UBL9 1-471): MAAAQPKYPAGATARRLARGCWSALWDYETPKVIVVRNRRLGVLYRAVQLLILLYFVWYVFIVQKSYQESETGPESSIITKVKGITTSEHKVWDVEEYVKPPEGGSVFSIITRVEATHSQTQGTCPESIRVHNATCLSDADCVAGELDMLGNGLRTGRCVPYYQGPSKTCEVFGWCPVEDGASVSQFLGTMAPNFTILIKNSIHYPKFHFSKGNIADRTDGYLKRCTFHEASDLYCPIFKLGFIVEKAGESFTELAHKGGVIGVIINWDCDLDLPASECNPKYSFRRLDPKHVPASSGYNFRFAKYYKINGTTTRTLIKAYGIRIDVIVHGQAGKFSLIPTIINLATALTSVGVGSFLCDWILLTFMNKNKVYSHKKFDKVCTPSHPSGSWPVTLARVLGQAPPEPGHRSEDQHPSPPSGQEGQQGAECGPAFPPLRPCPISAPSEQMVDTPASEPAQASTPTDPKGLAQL
T2 sequence (P56373 1-397): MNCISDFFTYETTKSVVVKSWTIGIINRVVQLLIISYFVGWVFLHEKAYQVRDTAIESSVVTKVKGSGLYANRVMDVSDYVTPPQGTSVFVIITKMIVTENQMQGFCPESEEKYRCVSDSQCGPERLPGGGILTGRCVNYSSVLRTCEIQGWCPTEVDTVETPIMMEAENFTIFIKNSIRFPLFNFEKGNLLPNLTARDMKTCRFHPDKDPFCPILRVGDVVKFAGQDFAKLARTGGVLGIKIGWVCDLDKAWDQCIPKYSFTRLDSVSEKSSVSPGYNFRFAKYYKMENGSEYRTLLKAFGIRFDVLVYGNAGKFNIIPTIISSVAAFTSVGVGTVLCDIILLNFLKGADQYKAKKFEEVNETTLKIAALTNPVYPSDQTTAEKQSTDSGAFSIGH
How it was run: as §1

Cc1ccc(-c2cc(C(=O)NC(C)c3cnccn3)cc(-n3ncnc3C3CC3)c2)nc1 (stereo not drawn) [Compound 60, 3-(5-Cyclopropyl-[1,2,4]triazol-1-yl)-5-(5-methyl-pyridin-2-yl)-N-(1-pyrazin-2-yl-ethyl)-benzamide]
Ki [1]: 0.0191 µM | Ki [2]: 0.389 µM

Cc1ccc(-c2cc(C(=O)NC(C)c3cnccn3)cc(-n3ncnc3C(C)N(C)C)c2)cc1 (stereo not drawn) [Compound 61, 5-[5-(1-Dimethylamino-ethyl)-[1,2,4]triazol-1-yl]-4′-methyl-biphenyl-3-carboxylic acid (1-pyrazin-2-yl-ethyl)-amide]
Ki [1]: 0.00525 µM | Ki [2]: 0.0513 µM

Cc1ccc(-c2cc(C(=O)NCc3cnc(C)cn3)cc(-n3ncnc3C(C)N(C)C)c2)cc1 (stereo not drawn) [Compound 62, 5-[5-(1-Dimethylamino-ethyl)-[1,2,4]triazol-1-yl]-4′-methyl-biphenyl-3-carboxylic acid (5-methyl-pyrazin-2-ylmethyl)-amide]
Ki [1]: 0.00525 µM | Ki [2]: 0.0437 µM

CCCc1ncnn1-c1cc(C(=O)NC(C)CN(C)C)cc(-c2ccc(C)cc2)c1 (stereo not drawn) [Compound 63, 4′-Methyl-5-(5-propyl-[1,2,4]triazol-1-yl)-biphenyl-3-carboxylic acid (2-dimethylamino-1-methyl-ethyl)-amide]
Ki [1]: 0.339 µM | Ki [2]: 10 µM

Cc1ccc(-c2cc(C(=O)NC3CC3)cc(-n3ncnc3C(F)(F)F)c2)cc1 [Compound 64, 4′-Methyl-5-(5-trifluoromethyl-[1,2,4]triazol-1-yl)-biphenyl-3-carboxylic acid cyclopropylamide]
Ki [1]: 0.00457 µM | Ki [2]: 0.309 µM

Cc1ccc(-c2cc(C(=O)N[C@@H](C)CO)cc(-n3ncnc3C(F)(F)F)c2)cc1 [Compound 65, 4′-Methyl-5-(5-trifluoromethyl-[1,2,4]triazol-1-yl)-biphenyl-3-carboxylic acid ((S)-2-hydroxy-1-methyl-ethyl)-amide]
Ki [1]: 0.00676 µM | Ki [2]: 2 µM

Cc1ccc(-c2cc(C(=O)NC(C)c3cnccn3)cc(-n3ncnc3C(F)(F)F)c2)cc1 (stereo not drawn) [Compound 66, 4′-Methyl-5-(5-trifluoromethyl-[1,2,4]triazol-1-yl)-biphenyl-3-carboxylic acid (1-pyrazin-2-yl-ethyl)-amide]
Ki [1]: 0.00372 µM | Ki [2]: 0.0407 µM

Cc1ccc(-c2cc(C(=O)NCc3cnc(C)cn3)cc(-n3ncnc3C(F)(F)F)c2)cc1 [Compound 67, 4′-Methyl-5-(5-trifluoromethyl-[1,2,4]triazol-1-yl)-biphenyl-3-carboxylic acid (5-methyl-pyrazin-2-ylmethyl)-amide]
Ki [1]: 0.00631 µM | Ki [2]: 0.049 µM

Cc1ccc(-c2cc(C(=O)NCc3cnc(C)cn3)cc(-n3ncnc3C(C)(F)F)c2)nc1 [Compound 69, 3-[5-(1,1-Difluoro-ethyl)-[1,2,4]triazol-1-yl]-N-(5-methyl-pyrazin-2-ylmethyl)-5-(5-methyl-pyridin-2-yl)-benzamide]
Ki [1]: 0.00186 µM | Ki [2]: 0.0269 µM

Cc1ccc(-c2cc(C(=O)NC(C)c3cnccn3)cc(-n3ncnc3C(C)(F)F)c2)nc1 (stereo not drawn) [Compound 70, 3-[5-(1,1-Difluoro-ethyl)-[1,2,4]triazol-1-yl]-5-(5-methyl-pyridin-2-yl)-N-(1-pyrazin-2-yl-ethyl)-benzamide]
Ki [1]: 0.00191 µM | Ki [2]: 0.0427 µM

Cc1ccc(-c2cc(C(=O)N[C@@H](C)CO)cc(-n3ncnc3C(C)(F)F)c2)nc1 [Compound 71, 3-[5-(1,1-Difluoro-ethyl)-[1,2,4]triazol-1-yl]-N-((S)-2-hydroxy-1-methyl-ethyl)-5-(5-methyl-pyridin-2-yl)-benzamide]
Ki [1]: 0.00282 µM | Ki [2]: 2.29 µM

Cc1ccc(-c2cc(C(=O)NC3CC3)cc(-n3ncnc3C(C)(F)F)c2)nc1 [Compound 72, N-Cyclopropyl-3-[5-(1,1-difluoro-ethyl)-[1,2,4]triazol-1-yl]-5-(5-methyl-pyridin-2-yl)-benzamide]
Ki [1]: 0.00912 µM | Ki [2]: 2.51 µM

C[C@@H](CO)NC(=O)c1cc(-c2ccc(Cl)cn2)cc(-n2ncnc2C(C)(F)F)c1 [Compound 73, 3-(5-Chloro-pyridin-2-yl)-5-[5-(1,1-difluoro-ethyl)-[1,2,4]triazol-1-yl]-N-((S)-2-hydroxy-1-methyl-ethyl)-benzamide]
Ki [1]: 0.00891 µM | Ki [2]: 2.19 µM

CC(C)Cc1ncnn1-c1cc(C(=O)NC(C)c2cnccn2)cc(-c2ccc(Cl)cn2)c1 (stereo not drawn) [Compound 74, 3-(5-Chloro-pyridin-2-yl)-5-(5-isobutyl-[1,2,4]triazol-1-yl)-N-(1-pyrazin-2-yl-ethyl)-benzamide]
Ki [1]: 0.00417 µM | Ki [2]: 0.0603 µM

CC(NC(=O)c1cc(-c2ccc(Cl)cn2)cc(-n2ncnc2C(F)F)c1)c1cnccn1 (stereo not drawn) [Compound 76, 3-(5-Chloro-pyridin-2-yl)-5-(5-difluoromethyl-[1,2,4]triazol-1-yl)-N-(1-pyrazin-2-yl-ethyl)-benzamide]
Ki [1]: 0.0102 µM | Ki [2]: 0.741 µM

Cc1cnc(CNC(=O)c2cc(-c3ccc(Cl)cn3)cc(-n3ncnc3C(F)F)c2)cn1 [Compound 77, 3-(5-Chloro-pyridin-2-yl)-5-(5-difluoromethyl-[1,2,4]triazol-1-yl)-N-(5-methyl-pyrazin-2-ylmethyl)-benzamide]
Ki [1]: 0.00977 µM | Ki [2]: 0.724 µM

C[C@@H](CO)NC(=O)c1cc(-c2ccc(Cl)cn2)cc(-n2ncnc2C(F)F)c1 [Compound 78, 3-(5-Chloro-pyridin-2-yl)-5-(5-difluoromethyl-[1,2,4]triazol-1-yl)-N-((S)-2-hydroxy-1-methyl-ethyl)-benzamide]
Ki [1]: 0.0759 µM | Ki [2]: 8.71 µM

CC(NC(=O)c1cc(-c2ccc(Cl)cn2)cc(-n2ncnc2C(F)(F)F)c1)c1cnccn1 (stereo not drawn) [Compound 79, 3-(5-Chloro-pyridin-2-yl)-N-(1-pyrazin-2-yl-ethyl)-5-(5-trifluoro-methyl-[1,2,4]triazol-1-yl)-benzamide]
Ki [1]: 0.00851 µM | Ki [2]: 0.372 µM

Cc1cnc(CNC(=O)c2cc(-c3ccc(Cl)cn3)cc(-n3ncnc3C(F)(F)F)c2)cn1 [Compound 80, 3-(5-Chloro-pyridin-2-yl)-N-(5-methyl-pyrazin-2-ylmethyl)-5-(5-trifluoromethyl-[1,2,4]triazol-1-yl)-benzamide]
Ki [1]: 0.00891 µM | Ki [2]: 0.275 µM

C[C@@H](CO)NC(=O)c1cc(-c2ccc(Cl)cn2)cc(-n2ncnc2C(F)(F)F)c1 [Compound 81, 3-(5-Chloro-pyridin-2-yl)-N-((S)-2-hydroxy-1-methyl-ethyl)-5-(5-trifluoromethyl-[1,2,4]triazol-1-yl)-benzamide]
Ki [1]: 0.0457 µM | Ki [2]: 3.89 µM

Cc1ccc(-c2cc(C(=O)NCc3cnc(C)cn3)cc(-n3ncnc3C(C)(C)C)c2)nc1 [Compound 82, 3-(5-tert-Butyl-[1,2,4]triazol-1-yl)-N-(5-methyl-pyrazin-2-ylmethyl)-5-(5-methyl-pyridin-2-yl)-benzamide]
Ki [1]: 0.00603 µM | Ki [2]: 1.35 µM

CC(NC(=O)c1cc(-c2ccc(Cl)cn2)cc(-n2ncnc2C(C)(C)C)c1)c1cnccn1 (stereo not drawn) [Compound 83, 3-(5-tert-Butyl-[1,2,4]triazol-1-yl)-5-(5-chloro-pyridin-2-yl)-N-(1-pyrazin-2-yl-ethyl)-benzamide]
Ki [1]: 0.0123 µM | Ki [2]: 0.115 µM

Cc1cnc(CNC(=O)c2cc(-c3ccc(Cl)cn3)cc(-n3ncnc3C(C)(C)C)c2)cn1 [Compound 84, 3-(5-tert-Butyl-[1,2,4]triazol-1-yl)-5-(5-chloro-pyridin-2-yl)-N-(5-methyl-pyrazin-2-ylmethyl)-benzamide]
Ki [1]: 0.0141 µM | Ki [2]: 0.427 µM

C[C@@H](CO)NC(=O)c1cc(-c2ccc(Cl)cn2)cc(-n2ncnc2C(C)(C)C)c1 [Compound 85, 3-(5-tert-Butyl-[1,2,4]triazol-1-yl)-5-(5-chloro-pyridin-2-yl)-N-((S)-2-hydroxy-1-methyl-ethyl)-benzamide]
Ki [1]: 0.0417 µM | Ki [2]: 3.55 µM
